Values joined by “and” are separate entries in the source; they are usually repeats but may differ in a detail not shown here. Identical values can stand only once.
Experiments:
[1] = test system: herpes-simplex virus 2; details: ref xxi; cited from earlier work
[2] = test system: bacteriophage φ6; details: ref xxi; cited from earlier work
[3] = test system: simian immunodeficiency virus (SIV); details: ref xxii; cited from earlier work
[4] = Critical micelle concentration by tensiometer measurements in water; assay type: physicochemical; details: for CMC: in water, triplicate single values

| CMC [4] | Molecule | also measured |
| --- | --- | --- |
| 10.5 µM and 12 µM | CCCCCCCCCCCCCCCC(=O)OC[C@H]1O[C@H](O[C@@H]2O[C@H](CO)[C@@H](O)[C@H](O)[C@H]2O)[C@@H](O)[C@@H](O)[C@@H]1O [Compound 6, β-D-Glucopyranosyl-(1→1)-6-O-palmitate-α-D-mannopyranoside] | – |
| 13.5 µM and 13.7 µM | CCCCCCCCCCCCCCCC(=O)OC[C@H]1O[C@H](OC)[C@@H](O)[C@@H](O)[C@@H]1O [Compound 7, Methyl-6-O-palmitate-α-D-mannopyranoside] | – |

Further lines, the molecule ahead of its results:

| Molecule | CMC [4] | also measured |
| --- | --- | --- |
| 1-O-lauryl-glycerol [GML] | – | activity against herpes-simplex virus 2 [1]: low micromolar activity; activity against bacteriophage φ6 [2]: low micromolar activity; prevention of SIV in rhesus macaque model [3]: prevent simian immunodeficiency virus (SIV) |
| CCCCCCCCCCCCCCCC(=O)OC[C@H]1O[C@H](O[C@@H]2O[C@H](CO)[C@H](O)[C@H](O)[C@H]2O)[C@@H](O)[C@@H](O)[C@@H]1O [Compound 3, β-D-Galactopyranosyl-(1→1)-6-O-palmitate-α-D-mannopyranoside] | 10.5 µM | – |
| CCCCCCCCCCCCCCCC(=O)O[C@@H]1[C@H](O)[C@@H](O[C@@H]2O[C@H](CO)[C@H](O)[C@H](O)[C@H]2O)O[C@H](CO)[C@H]1O [Compound 4, β-D-Galactopyranosyl-(1→1)-3-O-palmitate-α-D-mannopyranoside] | 12.5 µM | – |
| CCCCCCCCCCCCCCCC(=O)OC[C@H]1O[C@H](OC)[C@@H](O)[C@@H](O)[C@@H]1OC(=O)CCCCCCCCCCCCCCC [Compound 8, Methyl-4,6-di-O-palmitate-α-D-mannopyranoside] | – | concentration above which precipitates rather than micelles form in water ([4]; interpretation of surface tension data): > 500 nM |

Source: article PMC3380439 (Bioorganic & medicinal chemistry, 2011)
